Experiments:
MIA PaCa-2 = experiment: Antiproliferative activity against MIA PaCa cells by MTT assay; format: functional, cell-based; conditions: Homo sapiens
[1] = biological target: cAMP-dependent protein kinase (PKA) (Homo sapiens, UniProt P22694+P17612+P22612); experiment: Inhibition of PKA; format: protein assay

Row | SMILES | IC50 [1] | EC50 (MIA PaCa-2)
1 | N[C@H](COc1cncc(-c2cc3cn[nH]c3cn2)c1)Cc1c[nH]c2ccccc12 |  | 1160 nM
2 | N[C@H](COc1cncc(-c2ccc3[nH]ncc3c2)c1)Cc1c[nH]c2ccccc12 |  | 820 nM
3 | N[C@H](COc1cncc(-c2ccc3[nH]nc(Cl)c3c2)c1)Cc1c[nH]c2ccccc12 | 6.8 nM | 380 nM
4 | N[C@H](COc1cncc(-c2cc3cn[nH]c3cc2[N+](=O)[O-])c1)Cc1c[nH]c2ccccc12 |  | 2940 nM
5 | N[C@H](COc1cncc(-c2cc3c(-c4ccco4)n[nH]c3cn2)c1)Cc1ccccc1 | 274 nM | 1200 nM
6 | Cc1n[nH]c2cnc(-c3cncc(OC[C@@H](N)Cc4c[nH]c5ccccc45)c3)cc12 | 15 nM | 41 nM
7 | N[C@H](COc1cncc(-c2cc3cn[nH]c3cn2)c1)Cc1ccccc1 |  | 1690 nM
8 | Nc1cc2[nH]nc(Cl)c2cc1-c1cncc(OC[C@@H](N)Cc2c[nH]c3ccccc23)c1 | 58 nM | 330 nM

The next lines start with results.

Row | IC50 [1] | SMILES | EC50 (MIA PaCa-2)
9 | 16 nM | N[C@H](COc1cncc(-c2ccc3[nH]nc(C(F)(F)F)c3c2)c1)Cc1c[nH]c2ccccc12 | 1290 nM
10 | 371 nM | N[C@H](COc1cncc(-c2cc3c(-c4ccccc4)n[nH]c3cn2)c1)Cc1ccccc1 | 584 nM
11 | 32 nM | C=Cc1n[nH]c2cnc(-c3cncc(OC[C@@H](N)Cc4ccccc4)c3)cc12 | 660 nM
12 | 32 nM | Cc1n[nH]c2cnc(-c3cncc(OC[C@@H](N)Cc4ccccc4)c3)cc12 | 680 nM
13 | 46 nM | N[C@H](COc1cncc(-c2cc3c(Cl)n[nH]c3cn2)c1)Cc1ccccc1 | 

Source: ChEMBL document CHEMBL1142911, “Design and synthesis of pyridine-pyrazolopyridine-based inhibitors of protein kinase B/Akt” (Bioorg Med Chem, 2007)
